Data on ten compounds can be found in PubChem BioAssay (NCI).

Among the test systems are ACHN renal; CAKI-1 renal; EKVX NSCLC; HCT-116 colon; HS 578T breast; KM12 colon; NCI-H23 lung; NCI-H522 lung; NCI/ADR-RES ovarian; SN12C renal.
Common to all, as to assay: NCI anticancer screen, dose series, 48 h

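Dose response: 5 concentrations. Exposure: 48 h. Format: 96-well plates. Endpoint: linear interpolation; highest concentration if not reached. Abbreviation: GI50, concentration required for 50% inhibition of growth. At the TGI there is no net growth.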

For `O=C(Cc1ccc(F)c(F)c1)Nc1cc(C2(C(F)(F)F)CC2)nn1Cc1ccccc1`, the GI50 is 3.85 µM with ACHN renal; 3.24 µM in the assay with CAKI-1 renal; 2.98 µM in the assay with EKVX NSCLC; 4.28 µM in the assay with HCT-116 colon; 1.53 µM in the assay on HS 578T breast; 4.41 µM in the assay with KM12 colon. In addition, the GI50 is 3.61 µM in the assay on NCI-H23 lung, 3.08 µM with NCI-H522 lung, 3.98 µM with NCI/ADR-RES ovarian and 4.64 µM in the assay on SN12C renal. The TGI is 14.2 µM in the assay on ACHN renal; 11.5 µM in the assay with CAKI-1 renal; 12.2 µM in the assay on EKVX NSCLC; greater than 15 µM in the assay on HCT-116 colon; 10.1 µM with HS 578T breast; greater than 15 µM in the assay on KM12 colon. The TGI in the assay on NCI-H23 lung is 10.9 µM; with NCI-H522 lung it was 9.89 µM; with NCI/ADR-RES ovarian, greater than 15 µM; in the assay on SN12C renal, greater than 15 µM.

As for `N=c1ccn(O)cc1/C=C1/C(=O)Nc2ccccc21`, the GI50 in the assay with ACHN renal, with CAKI-1 renal, with EKVX NSCLC, with HCT-116 colon, in the assay on HS 578T breast and in the assay with KM12 colon was greater than 100 µM in each case. In addition, the GI50 in the assay on NCI-H23 lung, in the assay with NCI-H522 lung, in the assay on NCI/ADR-RES ovarian and in the assay with SN12C renal was greater than 100 µM throughout. For the same compound, the TGI in the assay with ACHN renal, in the assay on CAKI-1 renal, in the assay on EKVX NSCLC, in the assay on HCT-116 colon, with HS 578T breast and in the assay with KM12 colon was greater than 100 µM throughout. Moreover, the TGI with NCI-H23 lung, with NCI-H522 lung, in the assay with NCI/ADR-RES ovarian and in the assay with SN12C renal was greater than 100 µM each time.

Consider `Nc1nc2c(ncn2C2C=CC(CO)C2)c(=O)[nH]1` (stereo not given), for which the TGI with ACHN renal, in the assay on CAKI-1 renal, with EKVX NSCLC, in the assay on HCT-116 colon, in the assay with HS 578T breast and in the assay on KM12 colon was greater than 100 µM in each case. Moreover, the TGI in the assay with NCI-H23 lung, with NCI-H522 lung, with NCI/ADR-RES ovarian and in the assay on SN12C renal was greater than 100 µM throughout.

Turning to `COc1ccc2ccccc2c1C1NC(=O)c2ccccc2N1` (stereo not given), the TGI in the assay with ACHN renal is greater than 84.5 µM; with CAKI-1 renal, greater than 85.2 µM; in the assay on EKVX NSCLC, greater than 100 µM; in the assay with HCT-116 colon, 13.8 µM; in the assay on HS 578T breast it was greater than 31.3 µM; in the assay with KM12 colon, 19.9 µM. For the same compound, the TGI is greater than 100 µM in the assay on NCI-H23 lung, greater than 25.6 µM with NCI-H522 lung, 3.02 µM in the assay with NCI/ADR-RES ovarian and greater than 82.6 µM in the assay on SN12C renal.

On to `NCC1OC(n2cnc3c(N)ncnc32)CC1O` (stereo not given), for which the TGI in the assay on ACHN renal, in the assay on CAKI-1 renal, in the assay on EKVX NSCLC, in the assay on HCT-116 colon, in the assay with HS 578T breast and with KM12 colon was greater than 100 µM throughout. The TGI with NCI-H23 lung, in the assay on NCI-H522 lung, with NCI/ADR-RES ovarian and with SN12C renal was greater than 100 µM each time.

On to `COc1cccc(NC(=O)c2sc3nc(C)c(C(O)c4ccccc4)cc3c2N)c1` (stereo not given), for which the GI50 in the assay on ACHN renal is 0.601 µM; in the assay on CAKI-1 renal, 0.347 µM; in the assay on EKVX NSCLC, 0.76 µM; in the assay on HCT-116 colon it was 0.241 µM; in the assay on HS 578T breast it was 0.222 µM; in the assay with KM12 colon, 0.337 µM. The GI50 with NCI-H23 lung was 0.401 µM; with NCI-H522 lung it was 0.308 µM; with NCI/ADR-RES ovarian, 0.245 µM; in the assay with SN12C renal it was 0.421 µM. For the same compound, the TGI with ACHN renal was 18.2 µM; in the assay with CAKI-1 renal it was 18 µM; in the assay on EKVX NSCLC, 34.8 µM; in the assay with HCT-116 colon, 12 µM; with HS 578T breast, 3.21 µM; with KM12 colon, 11.8 µM. In addition, the TGI with NCI-H23 lung was determined as 15.8 µM; with NCI-H522 lung, 14.1 µM; in the assay on NCI/ADR-RES ovarian it was 0.941 µM; in the assay with SN12C renal it was 17.6 µM.

`Oc1ccc(C(c2ccc(O)cc2)c2ccc(O)cc2)cc1`: the TGI in the assay with ACHN renal was determined as 90.8 µM; with CAKI-1 renal it was 40 µM; with EKVX NSCLC, 46.8 µM; in the assay with HCT-116 colon, 35 µM; in the assay with HS 578T breast, 56.1 µM; with KM12 colon, 32.4 µM. The TGI came to 45.7 µM in the assay on NCI-H23 lung, 32.9 µM in the assay with NCI-H522 lung, 44.2 µM in the assay with NCI/ADR-RES ovarian and 43.9 µM in the assay with SN12C renal.

On to `COc1cc(-c2cc(O)c(-c3ccc4ccccc4n3)c(=O)[nH]2)cc(OC)c1OC`, for which the TGI in the assay on ACHN renal was greater than 89.8 µM; with CAKI-1 renal it was greater than 87.9 µM; in the assay with EKVX NSCLC it was greater than 100 µM; in the assay with HCT-116 colon, 62.2 µM; in the assay with HS 578T breast, greater than 100 µM; with KM12 colon it was greater than 100 µM. The TGI with NCI-H23 lung was greater than 95.5 µM; in the assay with NCI-H522 lung, 40.8 µM; in the assay on NCI/ADR-RES ovarian, greater than 100 µM; with SN12C renal, greater than 100 µM.

With `CC(=O)C1=C(O)C=C2Oc3c(C(=O)/C=C/c4c(Cl)cccc4Cl)c(O)c(C)c(O)c3[C@]2(C)C1=O`, the GI50 with ACHN renal was 1.64 µM; with CAKI-1 renal, 0.832 µM; with EKVX NSCLC, 1.63 µM; in the assay with HCT-116 colon, 0.536 µM; with HS 578T breast, 2.39 µM; with KM12 colon, 1.15 µM. Besides, the GI50 is 1.23 µM in the assay on NCI-H23 lung, 0.46 µM in the assay on NCI-H522 lung, 0.786 µM in the assay on NCI/ADR-RES ovarian and 0.527 µM in the assay with SN12C renal. The TGI with ACHN renal worked out at 8.07 µM; in the assay on CAKI-1 renal, 8.92 µM; with EKVX NSCLC, 7.24 µM; with HCT-116 colon, 2.7 µM; in the assay on HS 578T breast, 7.86 µM; in the assay with KM12 colon, 3.99 µM. The TGI with NCI-H23 lung came out at 5.82 µM; with NCI-H522 lung, 2.77 µM; in the assay with NCI/ADR-RES ovarian it was 5.21 µM; with SN12C renal, 1.76 µM.

In the case of `NCCCCCCCn1c2c(c3ccccc3c1=O)C(=O)c1ccccc1-2`, the GI50 is 1.6 µM in the assay on ACHN renal; 1.96 µM with CAKI-1 renal; 10 µM with EKVX NSCLC; 1.42 µM in the assay on HCT-116 colon; 1.8 µM in the assay with HS 578T breast; 1.68 µM with KM12 colon. For the same compound, the GI50 is 2.98 µM in the assay with NCI-H23 lung, 1.58 µM with NCI-H522 lung, 2.56 µM with NCI/ADR-RES ovarian and 1.94 µM in the assay with SN12C renal. In addition, the TGI was found to be 3.47 µM in the assay with ACHN renal; 5.25 µM in the assay on CAKI-1 renal; 21.7 µM with EKVX NSCLC; 2.81 µM in the assay with HCT-116 colon; 4.31 µM with HS 578T breast; 3.82 µM in the assay on KM12 colon. Also, the TGI in the assay with NCI-H23 lung came to 8.36 µM; in the assay on NCI-H522 lung, 3.46 µM; in the assay on NCI/ADR-RES ovarian, 7.87 µM; with SN12C renal, 5.84 µM.
